Measurements taken from PubChem BioAssay (NCI).
“And” between values parts separate entries of the source, which are not always exact repeats. Equal entries are not always repeated.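 Each compound was tested at five concentrations against cells in 96-well plates for 48 hours. GI50 = concentration required for 50% inhibition of growth. The concentration for full growth arrest is given as TGI.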

Experiments:
Assay in all cases: NCI tumour cell line growth inhibition, 48 h
[1] = test system: HOP-18 NSCLC
[2] = test system: DLD-1 colon
[3] = test system: M19-MEL melanoma
[4] = test system: XF 498 CNS
[5] = test system: LXFL 529 NSCLC
[6] = test system: KM20L2 colon
[7] = test system: DMS 114 small cell lung
[8] = test system: P388 leukemia
[9] = test system: SN12K1 renal
[10] = test system: P388/ADR leukemia
[11] = test system: RXF-631 renal

SMILES	TGI [1] [µM]	TGI [2] [µM]	TGI [3] [µM]	TGI [4] [µM]	TGI [5]	GI50 [1] [µM]	GI50 [6] [µM]	TGI [6]	TGI [7] [µM]	TGI [8] [µM]	TGI [9] [µM]	TGI [10] [µM]	TGI [11] [µM]	GI50 [2] [µM]	GI50 [5] [µM]
CCCCCCCCCCCCCCCCCC(=O)OCC1OC(OC)C(NC(=O)N(CCCl)N=O)C(O)C1O (configuration not stated)	> 100	> 100	> 100	44	37.5 µM										
O=C([CH-]C(=O)c1ccccc1)c1ccccc1.O=C([CH-]C(=O)c1ccccc1)c1ccccc1.O=C([CH-]C(=O)c1ccccc1)c1ccccc1.[Cl-].[Hf+4]	24.8					5.66	34.2	> 100 µM							
O=C(CSSCC(=O)OCCS(=O)(=O)Nc1ccc(Br)cc1)OCCS(=O)(=O)Nc1ccc(Br)cc1	> 100	> 100	56.4		34.1 µM			> 100 µM	29.3						
COc1cc(C2C(=O)C(Cl)N2Nc2nc(C)cc(=O)[nH]2)cc(OC)c1OC (configuration not stated)	28.1		> 100		29.7 µM			66.5 µM							
O=C(NC(Cc1ccc(Cl)cc1)C(=O)O)c1ccc(I)cc1 (configuration not stated)	> 100	> 100	> 100	> 100						> 100	> 100	> 100			
COc1ccc(N=Nc2c(N)nn(C)c2N)cc1	> 100	> 100	> 100		> 100 µM			> 100 µM	> 100				> 100		
Cc1ccc(C(=O)Nc2ncn(C3CC(O)C(CO)O3)c(=O)n2)cc1 (configuration not stated)	> 100	> 100	> 100	> 100					> 100	> 100	> 100	29.5			
CCCCCCCCCCCCSC(=S)c1c(C)[nH]n(CCCCCCCCCCCC)c1=O	> 100	> 100	> 100		> 100 µM			> 100 µM	> 100				> 100		
COc1cccc(NC(=O)CC(=O)NN2C(=O)/C(=C/c3ccc(N(CCC#N)CCC#N)cc3)N=C2c2cc([N+](=O)[O-])ccc2Cl)c1		> 100	> 100	> 100	> 100 µM			> 100 µM	> 100				> 100		
COc1ccc(N=Cc2ccc(N(CCC#N)S(=O)(=O)c3ccccc3)cc2C)cc1	> 100		> 100	> 100	> 100 µM			> 100 µM	> 100				> 100		
C[C@H]1CCC/C=C/[C@@H]2C[C@H](O)C[C@H]2[C@H](O)/C=C/C(=O)O1	2.41	17.3	0.00129		0.0285 µM and 0.11 µM			0.0368 µM and 0.0279 µM					0.272	0.0381	0.031
CCN(CCO)CCNc1ccc(C)c2sc3ccccc3c(=O)c12	24.3	14.2	3.63	10	10.4 µM			7.27 µM	20.6						
